Here are results for one compound from patent US9889147B2 (CELLACT PHARMA GMBH, priority 2010, dated 2018).

One series in a line: Half life in primates. It counts as in vivo.
A further series can be described thus: Half life in mice. To be noted: mouse, in vivo; mice with high levels of carboxylesterases.
A further series deals with T1, CES1 (Homo sapiens, UniProt P23141).
T1 sequence (P23141 18-567): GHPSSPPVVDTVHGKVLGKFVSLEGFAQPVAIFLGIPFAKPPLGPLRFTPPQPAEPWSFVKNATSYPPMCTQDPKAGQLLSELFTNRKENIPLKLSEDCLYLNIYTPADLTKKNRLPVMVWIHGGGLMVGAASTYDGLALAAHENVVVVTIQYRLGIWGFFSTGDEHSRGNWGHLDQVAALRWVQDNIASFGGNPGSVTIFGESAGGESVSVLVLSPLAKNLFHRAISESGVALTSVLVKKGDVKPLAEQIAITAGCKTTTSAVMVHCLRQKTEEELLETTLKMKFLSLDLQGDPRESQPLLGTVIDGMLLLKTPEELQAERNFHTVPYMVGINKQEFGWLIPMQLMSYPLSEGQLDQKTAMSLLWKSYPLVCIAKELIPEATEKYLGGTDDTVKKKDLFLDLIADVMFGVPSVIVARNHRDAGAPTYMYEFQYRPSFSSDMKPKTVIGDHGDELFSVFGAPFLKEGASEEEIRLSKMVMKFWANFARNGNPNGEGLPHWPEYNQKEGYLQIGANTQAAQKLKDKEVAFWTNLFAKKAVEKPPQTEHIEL
Kind of series: Conversion of CAP7.1 to etoposide by CES1 (HPLC). To be noted: 5 μM CAP7.1, sodium phosphate pH 7.4, 37° C. It counts as in vitro ADME. How it is done: (§1) 5 μM CAP7.1 was pre-incubated for 3 min in 999 μl 0.1 mol/l) sodium phosphate (NaH2PO4, Roth, Karlsruhe, Germany) pH 7.4 at 37° C. After that, CES1, CES2 and CES3, respectively, were added. Controls were incubated with 10% foetal calf serum (FCS, positive control) or in buffer (negative control). At different time points, aliquots were subjected to HPLC in order to analyse the formed products.

A further series can be described thus: Half life in humans. The settings on record: human, in vivo.
The nature of a further series: Animal toxicity profile. The settings on record: animals.
A further series addresses P-glycoprotein (Homo sapiens, UniProt P08183). Kind of series: P-glycoprotein substrate behaviour. It counts as cell-based.
Series [1] can be described thus: Time course of apoptosis induction. In kind it is cell-based.
The subject of another series is tumour cells. The settings on record: cited from earlier work.
Series [2] deals with T2, MDR-1 gene product (P-glycoprotein) (Homo sapiens, UniProt P08183).
T2 construct: endogenous in cells; host or cells: Kelly
In words: Functional MDR-1 assay with JC-1 in Kelly cells (flow cytometry). In kind it is cell-based. The settings on record: Kelly cells, 10^−4 mol/l, 15 min. How it is done:
By means of an assay using JC-1, MDR-1 activity was assessed in Kelly cells, which express MDR-1. JC-1 is a cationic staining dye which is taken up by living cells. JC-1 is recognized by the MDR-1 gene product (P-glycoprotein) and pumped to the outside of the cell (substrate efflux). Thus, MDR-1 activity is indicated by a reduction in intracellular JC-1 signal.
Kelly cells grown in RPMI medium were washed and resuspended at a concentration of 10^6 cells/ml in solutions containing JC-1 in a final concentration of 50 nmol/l. […] The control contained 1 μl (0.05%) DMSO. Cells were analysed for JC-1 staining in a FACScanto II flow cytometer.
In general terms: In flow cytometry, cells or beads pass a laser one at a time.

The nature of series [3]: Cardiovascular telemetry study. In kind it is in vivo, cynomolgus monkeys. To be noted: conscious monkeys, single intravenous 30-minute infusion. The source says: The objective of this study was to evaluate the potential modifications of cardiovascular function and cardiac electrophysiology by CAP7.1. The intravenous route was selected, as it is the intended mode of administration in human therapeutic use.
A total of four cynomolgus monkeys (two males and two females) were implanted with telemetric devices and allocated to a single group. They received a single dose of the vehicle (Cremophor/ethanol/NaCl) or CAP7.1, by intravenous 30-minute infusion. Cardiovascular parameters were monitored up to 24 hours following single infusion. The cardiovascular parameters evaluated in this study included heart rate, diastolic, systolic and mean arterial pressure, and duration of the PQ, QRS and QT intervals.

In a further series the test system is HT-29 cells. In words: Cytotoxicity on HT-29 cells (XTT). The settings on record: cell viability (XTT). It counts as cell-based. The protocol: HT-29 cells, which are not multidrug-resistant, were grown in DMEM, 10% foetal calf serum, 2 mM glutamine and […] Pen/Strep medium and then washed.
Cells were harvested, counted, and inoculated at the appropriate concentration of 10^4 cells/well (100 μl volume) into 96-well microtiter plates. After 24 h, the drugs were applied to triplicate culture wells, and cultures were incubated for given times at 37° C. XTT was prepared at 1 mg/ml in pre-warmed (37° C.) medium (RPMI 1640) without serum. PMS was prepared at 5 mmol/l (1.53 mg/ml) in PBS. Fresh XTT and PMS were mixed together at appropriate concentrations. For a 25 μmol/l XTT-PMS solution, 25 μl of the 5 mmol/l PMS solution were added per 5 ml of XTT (1 mg/ml). 50 μl of this mixture were added to each well on given time points after cell inoculation. After incubation at 37° C., the plates were mixed on a mechanical plate shaker, and absorbance was measured with an ELISA Reader to determine cell viability.

In another series the target is T3, CES2 (Homo sapiens, UniProt O00748).
T3 sequence (O00748 27-559): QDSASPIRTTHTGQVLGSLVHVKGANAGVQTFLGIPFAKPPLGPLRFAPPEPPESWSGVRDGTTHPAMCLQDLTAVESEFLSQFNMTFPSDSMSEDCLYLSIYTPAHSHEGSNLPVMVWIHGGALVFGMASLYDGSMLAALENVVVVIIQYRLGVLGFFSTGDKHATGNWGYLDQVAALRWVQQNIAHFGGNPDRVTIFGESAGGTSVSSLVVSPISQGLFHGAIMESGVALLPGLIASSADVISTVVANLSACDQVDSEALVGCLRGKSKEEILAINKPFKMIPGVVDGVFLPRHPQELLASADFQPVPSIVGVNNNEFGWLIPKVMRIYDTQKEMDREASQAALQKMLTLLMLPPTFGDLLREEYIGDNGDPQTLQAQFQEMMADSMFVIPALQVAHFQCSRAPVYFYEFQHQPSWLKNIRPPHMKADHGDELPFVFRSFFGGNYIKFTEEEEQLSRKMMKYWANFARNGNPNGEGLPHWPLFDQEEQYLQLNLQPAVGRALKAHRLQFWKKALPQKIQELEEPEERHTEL
Kind of series: Conversion of CAP7.1 to etoposide by CES2 (HPLC). It counts as in vitro ADME. To be noted: 5 μM CAP7.1, sodium phosphate pH 7.4, 37° C. How it is done:
as §1

T2 sequence (P08183 whole entry): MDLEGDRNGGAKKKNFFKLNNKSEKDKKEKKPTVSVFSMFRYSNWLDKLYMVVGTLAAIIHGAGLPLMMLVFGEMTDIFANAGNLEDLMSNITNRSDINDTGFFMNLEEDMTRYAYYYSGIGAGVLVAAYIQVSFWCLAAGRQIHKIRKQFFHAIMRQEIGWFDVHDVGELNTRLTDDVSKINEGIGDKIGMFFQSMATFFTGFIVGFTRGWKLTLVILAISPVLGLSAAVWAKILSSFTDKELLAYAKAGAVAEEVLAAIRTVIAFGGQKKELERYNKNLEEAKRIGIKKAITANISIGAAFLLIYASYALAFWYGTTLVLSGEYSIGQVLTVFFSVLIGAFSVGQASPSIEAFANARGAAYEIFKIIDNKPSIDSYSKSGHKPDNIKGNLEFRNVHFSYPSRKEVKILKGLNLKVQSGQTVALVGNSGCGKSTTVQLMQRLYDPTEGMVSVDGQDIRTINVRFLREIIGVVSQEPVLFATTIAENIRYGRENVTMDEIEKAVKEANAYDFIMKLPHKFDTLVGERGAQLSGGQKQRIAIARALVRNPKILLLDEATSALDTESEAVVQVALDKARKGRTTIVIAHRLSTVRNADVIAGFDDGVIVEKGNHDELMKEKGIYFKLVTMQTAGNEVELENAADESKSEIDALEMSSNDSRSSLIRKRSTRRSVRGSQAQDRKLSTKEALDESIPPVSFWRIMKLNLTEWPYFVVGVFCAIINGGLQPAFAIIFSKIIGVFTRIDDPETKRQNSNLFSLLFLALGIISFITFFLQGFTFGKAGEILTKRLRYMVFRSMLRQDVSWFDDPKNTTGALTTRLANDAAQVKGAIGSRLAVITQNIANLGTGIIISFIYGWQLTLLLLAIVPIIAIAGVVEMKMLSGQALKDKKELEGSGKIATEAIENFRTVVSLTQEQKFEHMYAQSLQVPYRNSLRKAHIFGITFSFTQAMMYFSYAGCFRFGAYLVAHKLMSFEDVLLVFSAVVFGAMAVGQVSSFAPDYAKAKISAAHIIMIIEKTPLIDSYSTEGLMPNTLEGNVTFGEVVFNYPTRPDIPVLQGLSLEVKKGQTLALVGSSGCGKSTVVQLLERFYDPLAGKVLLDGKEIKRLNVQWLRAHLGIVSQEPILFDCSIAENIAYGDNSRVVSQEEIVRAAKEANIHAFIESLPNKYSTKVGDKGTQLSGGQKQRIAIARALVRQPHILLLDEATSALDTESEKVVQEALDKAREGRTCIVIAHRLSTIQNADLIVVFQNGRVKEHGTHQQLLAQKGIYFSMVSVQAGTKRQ
Chain of P-glycoprotein (P08183 whole entry): as above

The half-life is the time needed for the level to fall by half in the phase considered. Low values mean rapid decline, high ones slow decline. As to `COc1cc([C@@H]2c3cc4c(cc3C(OC3OC5COC(C)OC5C(O)C3O)C3COC(=O)[C@@H]32)OCO4)cc(OC)c1OC(=O)OCC(O)CO` (stereo partly drawn) [CAP7.1], the “half life compared with mice” value in “Half life in primates” is “longer”. The same compound showed a half-life in the series “Half life in mice” below 5 min. For the same compound, the “cleavage of CAP7.1 to etoposide by CES1” value on CES1 is “efficiently cleaves”. The compound further displayed a half-life in the series “Half life in humans” of 15 to 30 min. In “Animal toxicity profile”, the “main toxicity at sublethal dose” value was “bone marrow suppression affecting predominantly neutrophils and red cells”; the weight loss result is reported as “do not”. Further, in “Animal toxicity profile” (high dose group), the tooth damage entry was “reversible tooth damage”. Moreover, the “substrate for P-glycoprotein / efflux from cells” value at P-glycoprotein is “not a substrate for P-glycoprotein”. In [1], the “time after which apoptosis is complete” value was determined as 120 h. Further, the “potency relative to etoposide, e.g. cytotoxicity on tumour cells” value in the series on tumour cells is “up to 1000 times”. For the same compound, the “intracellular JC-1 signal versus DMSO control (MDR-1-mediated substrate efflux)” value in series [2] is “increased”. For the same compound, in series [3], the arrhythmias result is listed as “No arrhythmias”. In addition, the “modifications in the cardiac electrophysiological parameters” value in [3] (up to 24 hours) was “no relevant modifications”. Further, the “IC50 value of CAP7.1 lower than IC50 value of etoposide” value in the series with HT-29 cells was found to be 10 fold. Moreover, the “cleavage of CAP7.1 to etoposide by CES2” value at CES2 was “as efficiently as the positive control FCS”.
